Data as given in patent publication US6737383B1, “Herbicidal oxadiazolidines” (priority 1999, dated 2004).

Tests used:
[1] = tested on: wild oat; test: Test B pre/postemergence wild oat; format: in vivo, Avena fatua
Method in brief: (§1)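 Herbicidal effect was estimated by eye on a ten-point control scale after plants spent twelve to sixteen days in a greenhouse following soil or foliar treatment. Foliar sprays targeted plants at one to four leaves; all doses were formulated in a non-phytotoxic solvent with surfactant.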

[2] = tested on: duck salad; test: Test B flood test duck salad; format: in vivo, Heteranthera limosa
Method in brief: (§2)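 Read-out is a visual response score from 0 (no effect) to 10 (complete control), assigned by comparison with untreated controls. Treatment was applied at the 2-leaf stage, and plants stayed in the greenhouse for twelve to sixteen days before scoring.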

[3] = tested on: smallflower flatsedge; test: Test B flood test smallflower flatsedge; format: in vivo, Cyperus difformis
Method in brief: as §2

[4] = tested on: rape; test: Test B pre/postemergence rape; format: in vivo, Brassica napus
Method in brief: as §1

[5] = tested on: surinam grass; test: Test B pre/postemergence surinam grass; format: in vivo, Brachiaria decumbens
Method in brief: as §1

[6] = tested on: crabgrass; test: Test B pre/postemergence crabgrass; format: in vivo, Digitaria sanguinalis
Method in brief: as §1

[7] = tested on: blackgrass; test: Test B pre/postemergence blackgrass; format: in vivo, Alopecurus myosuroides
Method in brief: as §1

[8] = tested on: wheat; test: Test B pre/postemergence wheat; format: in vivo, Triticum aestivum
Method in brief: as §1

[9] = tested on: giant foxtail; test: Test B pre/postemergence giant foxtail; format: in vivo, Setaria faberii
Method in brief: as §1

[10] = tested on: soybean; test: Test B pre/postemergence soybean; format: in vivo, Glycine max
Method in brief: as §1

[11] = tested on: velvetleaf; test: Test B pre/postemergence velvetleaf; format: in vivo, Abutilon theophrasti
Method in brief: as §1

[12] = tested on: bedstraw; test: Test B pre/postemergence bedstraw; format: in vivo, Galium aparine; conditions: for Plant response rating, Bedstraw: Postemergence
Method in brief: as §1

[13] = tested on: morningglory; test: Test B pre/postemergence morningglory; format: in vivo, Ipomoea hederacea
Method in brief: as §1

[14] = tested on: rice; test: Test B flood test rice; format: in vivo, Oryza sativa
Method in brief: as §2

[15] = tested on: purple nutsedge; test: Test B pre/postemergence purple nutsedge; format: in vivo, Cyperus rotundus
Method in brief: as §1

[16] = tested on: corn; test: Test B pre/postemergence corn; format: in vivo, Zea mays
Method in brief: as §1

[17] = Postemergence, Rate 62 g/ha, scale 0 to 10, 0 is no effect, 10 is complete control
[18] = Postemergence, Rate 125 g/ha, scale of 0 to 10 where 0 is no effect and 10 is complete control
[19] = Postemergence, Rate 250 g/ha, scale of 0 to 10, 0 is no effect, 10 is complete control
[20] = Postemergence, Rate 500 g/ha, scale of 0 to 10 where 0 is no effect and 10 is complete control
[21] = Preemergence, Rate 62 g/ha, scale 0 to 10 (0 no effect, 10 complete control)
[22] = Preemergence, Rate 125 g/ha, scale of 0 to 10 where 0 is no effect and 10 is complete control
[23] = Preemergence, Rate 500 g/ha, scale of 0 to 10 where 0 is no effect and 10 is complete control
[24] = Rate 62 g/ha, flood test species, Pre-emergence, visual evaluation after twelve to sixteen days
[25] = Rate 125 g/ha, under heading Pre-emergence, flood test species, visual evaluation after twelve to sixteen days
[26] = Rate 250 g/ha, Pre-emergence (flood test species), scale 0 to 10, 0 is no effect, 10 is complete control
[27] = Rate 500 g/ha, Pre-emergence section of Table B, 0 to 10 scale (0 no effect, 10 complete control)

C#CC(C)n1c(=O)on(C(=O)N(c2ccccc2)C(C)C)c1=O (stereo not drawn) [Compound 609]
Plant response rating, Wild oats [1, 17]: 0
Plant response rating, Wild oats [1, 18]: 0
Wild oats plant response rating [1, 19]: 0
Plant response rating, Wild oats [1, 20]: 4
Wild oats plant response rating [1, 21]: 3
Wild oats plant response rating [1, 22]: 7
Plant response rating, Wild oats [1, 23]: 10
Plant response rating, Ducksalad (0 to 10 scale, 0 is no effect, 10 is complete control) [2, 24]: 0
Ducksalad plant response rating (0 to 10 scale, 0 is no effect, 10 is complete control) [2, 25]: 0
Ducksalad plant response rating [2, 26]: 0
Ducksalad plant response rating [2, 27]: 0
Plant response rating, S. Flatsedge (0 to 10 scale, 0 is no effect, 10 is complete control) [3, 24]: 0
S. Flatsedge plant response rating (0 to 10 scale, 0 is no effect, 10 is complete control) [3, 25]: 0
S. Flatsedge plant response rating [3, 26]: 0
S. Flatsedge plant response rating [3, 27]: 0
Plant response rating, Rape [4, 17]: 0
Plant response rating, Rape [4, 18]: 0
Rape plant response rating [4, 19]: 1
Plant response rating, Rape [4, 20]: 3
Rape plant response rating [4, 21]: 0
Rape plant response rating [4, 22]: 0
Plant response rating, Rape [4, 23]: 10
Plant response rating, B. signalgrass [5, 17]: 0
Plant response rating, B. signalgrass [5, 18]: 1
B. signalgrass plant response rating [5, 19]: 5
Plant response rating, B. signalgrass [5, 20]: 8
B. signalgrass plant response rating [5, 21]: 3
B. signalgrass plant response rating [5, 22]: 6
B. signalgrass plant response rating (0 to 10 scale, 0 is no effect, 10 is complete control) ([5]; Preemergence, Rate 250 g/ha): 9
B. signalgrass plant response rating [5, 23]: 10
Plant response rating, Crabgrass [6, 17]: 5
Plant response rating, Crabgrass [6, 18]: 9
Crabgrass plant response rating [6, 19]: 9
Crabgrass plant response rating [6, 21]: 7
Crabgrass plant response rating [6, 22]: 7
Plant response rating, Crabgrass [6, 23]: 9
Plant response rating, Blackgrass [7, 17]: 5
Plant response rating, Blackgrass [7, 18]: 8
Blackgrass plant response rating [7, 19]: 8
Plant response rating, Blackgrass [7, 20]: 8
Blackgrass plant response rating [7, 21]: 7
Blackgrass plant response rating [7, 22]: 8
Blackgrass plant response rating (0 to 10 scale) ([7]; Preemergence, Rate 250 g/ha): 9
Blackgrass plant response rating [7, 23]: 10
Plant response rating, Wheat [8, 17]: 0
Plant response rating, Wheat [8, 18]: 0
Wheat plant response rating [8, 19]: 2
Plant response rating, Wheat [8, 20]: 6
Wheat plant response rating [8, 21]: 0
Wheat plant response rating [8, 22]: 0
Plant response rating, Wheat [8, 23]: 6
Plant response rating, Giant foxtail [9, 17]: 6
Plant response rating, Giant foxtail [9, 18]: 9
Giant foxtail plant response rating [9, 19]: 9
Plant response rating, Giant foxtail [9, 20]: 9
Giant foxtail plant response rating [9, 21]: 10
Giant foxtail plant response rating [9, 22]: 10
Plant response rating, Giant foxtail [9, 23]: 10
Plant response rating, Soybean [10, 17]: 5
Plant response rating, Soybean [10, 18]: 6
Plant response rating, Soybean [10, 20]: 7
Soybean plant response rating [10, 21]: 4
Soybean plant response rating [10, 22]: 6
Plant response rating, Soybean [10, 23]: 7
Plant response rating, Velvetleaf [11, 17]: 3
Plant response rating, Velvetleaf [11, 18]: 3
Velvetleaf plant response rating [11, 19]: 7
Plant response rating, Velvetleaf [11, 20]: 8
Velvetleaf plant response rating [11, 21]: 7
Velvetleaf plant response rating [11, 22]: 8
Plant response rating, Velvetleaf [11, 23]: 9
Plant response rating, Bedstraw ([12]; Rate 62 g/ha, scale 0 to 10, 0 is no effect, 10 is complete control): 0
Plant response rating, Bedstraw ([12]; Rate 125 g/ha, scale of 0 to 10 where 0 is no effect and 10 is complete control): 0
Bedstraw plant response rating [12, 21]: 4
Bedstraw plant response rating [12, 22]: 8
Bedstraw plant response rating (0 to 10 scale) ([12]; Preemergence, Rate 250 g/ha): 8
Plant response rating, Morningglory [13, 17]: 8
Plant response rating, Morningglory [13, 18]: 10
Morningglory plant response rating [13, 19]: 10
Plant response rating, Morningglory [13, 20]: 10
Morningglory plant response rating [13, 21]: 0
Morningglory plant response rating [13, 22]: 0
Plant response rating, Morningglory [13, 23]: 5
Plant response rating, Rice (0 to 10 scale, 0 is no effect, 10 is complete control) [14, 24]: 0
Rice plant response rating (0 to 10 scale, 0 is no effect, 10 is complete control) [14, 25]: 0
Rice plant response rating [14, 26]: 0
Rice plant response rating [14, 27]: 0
Plant response rating, Nutsedge [15, 17]: 0
Plant response rating, Nutsedge [15, 18]: 0
Nutsedge plant response rating [15, 19]: 0
Plant response rating, Nutsedge [15, 20]: 6
Nutsedge plant response rating [15, 21]: 0
Nutsedge plant response rating [15, 22]: 0
Plant response rating, Nutsedge [15, 23]: 4
Plant response rating, Corn [16, 17]: 0
Plant response rating, Corn [16, 18]: 0
Corn plant response rating [16, 19]: 2
Plant response rating, Corn [16, 20]: 7
Corn plant response rating [16, 21]: 2
Corn plant response rating [16, 22]: 2
Corn plant response rating (0 to 10 scale) ([16]; Preemergence, Rate 250 g/ha): 6
Plant response rating, Corn [16, 23]: 9
